Assay results as given in patent US11564913B2, “Compositions and methods for treating cancer” (Children's Hospital Medical Center, priority 2019, dated 2023).

Assays:
[1] = tested on: murine colon adenocarcinoma MC38 tumors; assay: MC38 colon adenocarcinoma mouse model; assay type: in vivo, mice
Procedure: FIG. 21: NIRA2 inhibits tumor growth of murine colon adenocarcinoma xenografts. […] Animals began treatment with vehicle, IODVA1, or NIRA2 (N=10 per group) when tumors reached 100-200 mm^3 in volume (day 12 post-injection) and received treatment 5 times per week for two weeks. Representative pictures of the spleens and extracted tumors are shown.
The in vivo efficacy of NIRA2 was tested against a xenograft mouse model generated with the murine colon adenocarcinoma MC38 cells. Cells were injected subcutaneously in the flank of a hind leg. Each injection contained one million cells of Matrigel+MC38 in a volume of […]. Tumors were calipered until an average size of 100-200 mm^3 is reached. Animals were sorted in into treatment groups (N=10) and administered (5× a week) by IP 250 μL of a PBS solution containing vehicle control, IODVA1 (1 mM), or NIRA2 (0.5 mM). Treatments lasted 2 weeks Animals were euthanized as tumor size reached 2 cm^3 or at the end of the study. Tumors were measured daily and mice weighed 3 times a week.

[2] = tested on: Vav3−/− leukemic cells expressing ΔCH Vav3; assay: Vav3 rescue, colony formation assay; assay type: cell-based, murine; details: 1, 5, and 10 μM
Source text: (§1) FIG. 15: Expression of transgenic Vav3 re-sensitizes Vav3-deficient cells to IODVA1. (A) Vav3 domain structure, calponin-homology (CH), acidic region (Ac), Dbl-homology (DH), pleckstrin-homology (PH), zinc finger (ZF), Src-homology 2 and 3 (SH2/SH3). (B) Representative histogram data of the cell cycle analysis of wild-type (Vav3^+/+) and Vav3-deficient (Vav3^−/−) p190-BCR-ABL1 leukemic bone marrow cells expressing empty vector, full-length Vav3 or ΔCH mutant and treated with vehicle control (black) or IODVA1 at 5 (red) or 10 μM (dark grey) for 18 h. (C) Quantification of the average number of colonies made by bone marrow wild-type and Vav3^−/− p190-BCR-ABL1 leukemic bone marrow cells expressing empty vector, full-length Vav3 or ΔCH mutant and treated with vehicle control (black) or IODVA1 at 1 (light salmon), 5 (red) and 10 μM (dark grey). *** p≤0.001. […]
(§2) For Vav3 rescue experiments, low density bone marrow cells from wild-type ([…]) or Vav3^−/− mice were transduced with bicistronic retroviral vector encoding p190 BCR-ABL1-IRES-YFP (yellow fluorescent protein) and YFP^+ cells were sorted 48 h post-transduction. […] Cell cycle was analyzed at 18 h post BrdU incorporation. […]

[3] = tested on: Vav3−/− leukemic cells expressing full-length Vav3; assay: Vav3 rescue, colony formation assay; assay type: cell-based, murine; details: 10 μM; 200 with vehicle
Source text: as §1, §2

[4] = tested on: NIH-3T3 cells; assay: PDGF-induced circular dorsal ruffle (CDR) formation; assay type: cell-based; details: 0-3 μM for 1 h, PDGF for 10 min

OC1(c2ccccn2)N=C(Nc2nc3ccccc3[nH]2)N=C1c1ccccn1 (centres unmarked) [IODVA1, (Z)-2-((1H-benzo[d]imidazol-2-yl)imino)-4,5-di(pyridin-2-yl)-2,5-dihydro-1H-imidazol-5-ol]
tumor growth and tumor volumes ([1]; IP 250 μL of 1 mM, 5× a week, 2 weeks): significantly reduced | effect on spleen ([1]; end of the study): did not notice any effect | response in colony formation [2]: respond less | number of colonies [3]: 75 colonies | CDR formation [4]: inhibited
